Source: US8853129B2 (Dow AgroSciences, LLC., priority 2010, dated 2014)

Columns and labels:
Assay in all cases: Herbicidal activity of mixtures under field conditions, residual weed control in grape crop
Format in all cases: in vivo
[1] = test system: black nightshade (Solanum nigrum; SOLNI); conditions: France, glyphosate tank mixed
Protocol: (§1) Trials were conducted under field conditions in France. Trial sites were located in commercially grown European grape crop (Vitis vinifera). The grapes were grown using normal cultural practices for fertilization, seeding, and maintenance to ensure good growth of the crop and the weeds. The trials were conducted using normal research methodology. Trial plots were between 2 to 4.5 meters (m) wide by 5.5 to 10 m long. […] The trial sites had naturally occurring populations of weeds. The weed spectrum included, but was not limited to, black nightshade (Solanum nigrum; SOLNI), common lambsquarter (Chenopodium album; CHEAL), common groundsel (Senecio vulgaris; SENVU), round-leaved […] spuria; KICSP) and common purslane (Portulaca olerace; POROL). […] Glyphosate was tank mixed with all treatments to provide complete foliar control of all weeds so that the residual weed control after application could be evaluated. The application volumes were between 150-325 liters per hectare (L/ha) of water. All application were made using precision gas hand sprayers using a 2 or 3 m boom using flat fan (80° or 110°) nozzles to broadcast the treatments on the soil. The treated plots and control plots were rated blind at various intervals after application. […] Data were collected for all trials and analyzed using various statistical methods. Colby's equation was used to determine the herbicidal effects expected from the mixtures (Colby, S. R. Calculation of the synergistic and antagonistic response of herbicide combinations. Weeds 1967, 15, 20-22). […] A=observed efficacy of active ingredient A at the same concentration as used in the mixture; B=observed efficacy of active ingredient B at the same concentration as used in the mixture.

[2] = test system: common groundsel (Senecio vulgaris; SENVU); conditions: penoxsulam 7 g ai/ha; 103 days after application, Fronton, France; glyphosate tank mixed
Protocol: as §1

[3] = test system: common lambsquarter (Chenopodium album; CHEAL); conditions: penoxsulam 7 g ai/ha; 109 DAA, Fronton, France; glyphosate tank mixed
Protocol: as §1

[4] = test system: common purslane (Portulaca oleracea; POROL); conditions: penoxsulam 7 g ai/ha; 103 days after application, Fronton, France; glyphosate tank mixed
Protocol: as §1

[5] = test system: round-leaved fluellen (Kickxia spuria; KICSP); conditions: penoxsulam 7 g ai/ha; 103 days after application, Fronton, France; glyphosate tank mixed
Protocol: as §1

SMILES: COc1cnc(OC)n2nc(NS(=O)(=O)c3c(OCC(F)F)cccc3C(F)(F)F)nc12 [Penoxsulam]
- Percent Control SOLNI (1) Ob ([1]; penoxsulam 5.6 g ai/ha, 56 DAA, Bourdic): 78%
- Percent Control SOLNI (2) Ob ([1]; penoxsulam 7 g ai/ha, 68 DAA, Eshallat): 17%
- Percent Control SENVU Ob [2]: 27%
- Percent Control CHEAL Ob [3]: 13%
- Percent Control POROL Ob [4]: 0%
- Percent Control KICSP Ob [5]: 0%
